Test results published in patent US12128050B2, “KP372-1-induced DNA damage as a chemotherapeutic approach to treat cancer” (New Mexico Tech University Research Park Corporation, priority 2020, dated 2024).

What was measured:
Format in all cases: cell-based
Capan-2 cells = test: DNA content assay (relative survival), Capan-2; conditions: 2 h
Method: (§1) DNA content assay: A modified cell survival assay measuring DNA content over ˜7-day period was utilized. Cells were seeded at 10,000 cells/well in 48-well plates in 0.5 mL of media. […] The cells were exposed for 2 hours (2 h) and the media were again aspirated and replaced with fresh media (without KP372-1). The cells were then allowed to grow for ˜7 days or until control samples became confluent. […] The DNA content was determined by measuring florescence signal using a Victor X5 plate reader. Fluorescence values of treated samples were normalized to that of control samples and plotted as means±SEM for treated over control (i.e., DMSO) treated (T/C) samples. The reported values are the results of the following sample sizes for KP372-1±DIC: MIA PaCa-2 concentration (n=5); Capan-2 concentration (n=3); MIA PaCa-2±siSCR/siNQO1 (n=3); hTERT-HPNE (n=3); PANC-1 (n=3); AsPC-1 (n=4); BxPC-3 (n=3); MIA PaCa-2 time (n=3); Capan-2 time (n=3). The reported values are the results of the following sample sizes for β-lap±DIC: MIA PaCa-2 (n=4) and Capan-2 (n=4).

MIA PaCa-2 cells [1] = test: DNA content assay (relative survival), MIA PaCa-2; conditions: 2 h
Method: as §1

MIA PaCa-2 cells [2] = test: KP372-1 + BMN 673 combination survival / synergy (CompuSyn); conditions: Fa=0.9; 0.075 μM KP372-1 + 1 μM BMN 673 in combination
Method: DNA content assay: A modified cell survival assay measuring DNA content over ˜7-day period was utilized. Cells were seeded at 10,000 cells/well in 48-well plates in 0.5 mL of media. The next day, media were aspirated and replaced with 0.5 mL media containing the indicated concentrations of KP372-1 (μM) alone or in combination with 50 μM DIC. The cells were exposed for 2 hours (2 h) and the media were again aspirated and replaced with fresh media (without KP372-1). The cells were then allowed to grow for ˜7 days or until control samples became confluent. Cells were then lysed in 250 μl dI water, then freeze-thawed followed by suspension in 0.5 mL 1× TNE buffer containing Hoechst 33258 fluorescent dye. The DNA content was determined by measuring florescence signal using a Victor X5 plate reader. Fluorescence values of treated samples were normalized to that of control samples and plotted as means±SEM for treated over control (i.e., DMSO) treated (T/C) samples. […]
Synergy calculations: Drug synergy was calculated using CompuSyn 1.0 software (www.combosyn.com). […] Then, cell survival was assessed via DNA content assay similarly to as described above. […] Dose-Reduction Index (DRI) values were calculated using the Chou-Talalay method. Briefly, DRI values are calculated using the following equation: DRI=(Dx)1/(D)1 where (Dx)1 is the dose of the drug alone and (D)1 is the dose of the drug in combination. […]

Row | SMILES | concentration up to which no appreciable toxicity was induced (Capan-2 cells) | concentration up to which no appreciable toxicity was induced (MIA PaCa-2 cells [1]) | dose reduction index (DRI) (MIA PaCa-2 cells [2])
1 | CC1(C)CCC2=C(O1)c1ccccc1C(=O)C2=O [β-lap, β-lapachone] | up to 1.0 μM | up to 2.0 μM | –
2 | Cn1ncnc1[C@H]1c2n[nH]c(=O)c3cc(F)cc(c23)N[C@@H]1c1ccc(F)cc1 [BMN 673, talazoparib] | – | – | 3.99
